According to article PMC9513756, “Establishing a UHPLC-MS/MS method for evaluation of the influence of stir-frying on the pharmacokinetics of seven compounds in Arctii Fructus” (RSC Advances, 2022):
Read-outs that look alike come from different tables or passages of the source.

Experiment: Pharmacokinetics of seven compounds in rat plasma after oral administration of RAF and SAF extracts (UHPLC-MS/MS)
Type: in vivo, male Sprague-Dawley rats
Details: for Tmax / half-life / MRT inf / AUC(0-inf) / AUC(0-t): male, Sprague-Dawley, rat, plasma, po, 12 g/kg
[1] = oral RAF extract 12 g kg^−1, n = 6
[2] = oral RAF extract 12 g kg^−1, n = 6, read-out: Mean residence time (MRT(0–∞))
[3] = oral SAF extract 12 g kg^−1, n = 6
[4] = oral SAF extract 12 g kg^−1, n = 6, read-out: Mean residence time (MRT(0–∞))

Experimental: All the components were measured using a Shimadzu UHPLC system (Shimadzu, Japan), and a Triple Quadrupole 5500 LC-MS/MS system (AB Sciex, USA) in negative ion mode. […] The gradient program was: 5–28% B (0–3 min), 28% B (3–3.5 min), 28–38% B (3.5–4 min), 38% B (4–4.5 min), 38–100% B (4.5–6 min), 100–5% B (6–7 min). With a column temperature of 40 °C, the optimized key parameters including curtain gas, collision gas, ion spray voltage, and temperature were assigned values of 55 psi, 35 psi, 4500 V, and 550 °C, respectively.
The rat plasma sample (100 μL), IS (10 μL), and 2 M HCl (20 μL) were mixed and vortex mixed for 3 min. Subsequently, 1 mL of ethyl acetate–butyl alcohol (1 : 1) was spiked into the mixed solution, and then centrifuged for 5 min at 25 000 × g.[14] Next, the supernatant was transferred and evaporated with nitrogen gas. These residues were then re-dissolved in 100 μL of 60% methanol, with the final solutions being vortex mixed for 3 min, and then centrifuged for 10 min at 25 000 × g. Finally, the supernatant was injected into the UHPLC-MS/MS for extensive analysis.
Firstly, male Sprague-Dawley rats (200–220 g) in the animal laboratory at the Nanjing University of Chinese Medicine under the standard conditions (License number: SYXK(SU)-2007-0030) were fed. The rats were fed and provided with water for one week prior to the experimentation. Secondly, before the administration of the extracts, the rats were stopped from eating but were provided with water for 12 h prior to the test. […] Depending on the clinical dosage administered to the human body, the dosage of RAF and SAF comprised 12 g kg^−1 for oral administration. In addition, 500 μL blood samples (about 250 μL plasma) were collected in 1.5 mL heparinized polythene tubes at 0, 0.033, 0.083, 0.167, 0.33, 0.5, 0.75, 1, 2, 4, 6, 8, 12, 24, and 48 h via the postorbital venous plexus veins, after oral administration of the two extracts was observed. Finally, the collected plasma was centrifuged for 5 min at 25 000 × g and stored at −20 °C before the analysis. All the pharmacokinetic parameters were evaluated with the DAS 1.0 system (Medical College of Wannan, China). Furthermore, the maximum concentration of oral administration of AF (Cmax) and the time to reach Cmax (Tmax) were derived from the concentration–time profile. All the values were given as mean ± standard deviation.

Row | SMILES | Tmax [1] [h] | half-life [1] [h] | MRT inf [2] [h] | Tmax [3] [h] | half-life [3] [h] | MRT inf [4] [h] | shape of plasma concentration-time profile (oral RAF and SAF) | C (max) [1] [ng/mL] | C (max) [3] [ng/mL] | AUC(0-inf) [1] [ng·h/mL] | AUC(0-t) [1] [ng·h/mL] | AUC(0-inf) [3] [ng·h/mL] | AUC(0-t) [3] [ng·h/mL] | t 1/2 [1] [h] | Mean residence time (MRT(0–∞)) [1] [h] | T max [1] [min] | Mean residence time (MRT(0–∞)) [3] [h] | T max [3] [min] | t 1/2 [3] [h]
1 | COc1cc(C[C@H]2C(=O)OC[C@@H]2Cc2ccc(OC)c(OC)c2)ccc1O [Arctigenin, arctigenin] | 9 ± 2.45 | 8.25 ± 1.09 | 14.9 ± 0.99 | 8.67 ± 3.72 | 9.95 ± 4.46 | 17.8 ± 6.08 | double-peak phenomenon | 706.9 ± 148.9 | 600.8 ± 158.3 |  |  |  |  |  |  |  |  |  | 
2 | COc1ccc(C[C@H]2COC(=O)[C@@H]2Cc2ccc(O[C@@H]3O[C@H](CO)[C@@H](O)[C@H](O)[C@H]3O)c(OC)c2)cc1OC [Arctiin, arctiin] | 0.152 ± 0.09 | 3 ± 1.42 | 5.33 ± 2.99 | 0.072 ± 0.05 | 3.83 ± 1.86 | 8.98 ± 3.11 |  | 1019.3 ± 605.9 | 605.7 ± 389.5 | 1070 ± 417 | 826 ± 216 | 1970 ± 600 | 943 ± 228 |  |  |  |  |  | 
3 | O=C(/C=C/c1ccc(O)c(O)c1)O[C@@H]1C[C@](O)(C(=O)O)C[C@@H](O)[C@H]1O [Chlorogenic acid, chlorogenic acid] | 0.875 ± 0.41 |  | 3.72 ± 0.6 | 0.111 ± 0.43 | 4.37 ± 0.32 | 5.09 ± 1.82 |  | 348.5 ± 161.3 | 303.7 ± 105.7 | 1090 ± 588 | 1070 ± 594 | 937 ± 660 | 695 ± 307 | 2.175 ± 0.28 |  |  |  |  | 
4 | O=C(C=Cc1ccc(O)c(O)c1)OC1C(O)CC(O)(C(=O)O)CC1O (stereo not shown) [Cryptochlorogenic acid, cryptochlorogenic acid] | 0.431 ± 0.07 | 12.6 ± 7.96 | 19.9 ± 9.37 | 0.103 ± 0.05 | 13.5 ± 7.98 | 16.9 ± 8.6 |  | 34.80 ± 25.06 | 116.16 ± 35.41 | 196 ± 59.1 | 152 ± 60.7 | 280 ± 68 | 218 ± 80.3 |  |  |  |  |  | 

Second part, the molecule after the results:

Row | Tmax [1] [h] | half-life [1] [h] | MRT inf [2] [h] | Tmax [3] [h] | half-life [3] [h] | MRT inf [4] [h] | shape of plasma concentration-time profile (oral RAF and SAF) | C (max) [1] [ng/mL] | C (max) [3] [ng/mL] | AUC(0-inf) [1] [ng·h/mL] | AUC(0-t) [1] [ng·h/mL] | AUC(0-inf) [3] [ng·h/mL] | AUC(0-t) [3] [ng·h/mL] | t 1/2 [1] [h] | Mean residence time (MRT(0–∞)) [1] [h] | T max [1] [min] | Mean residence time (MRT(0–∞)) [3] [h] | T max [3] [min] | t 1/2 [3] [h] | SMILES
5 | 0.792 ± 0.09 | 6.7 ± 3.61 | 8.35 ± 2.91 | 0.1 ± 0.07 | 3.27 ± 1.26 | 7.97 ± 5.12 |  | 99.05 ± 37.81 | 135.71 ± 25.50 | 272 ± 169 | 219 ± 110 | 180 ± 63.6 | 101 ± 73.1 |  |  |  |  |  |  | O=C(C=Cc1ccc(O)c(O)c1)OC1CC(O)(C(=O)O)CC(OC(=O)C=Cc2ccc(O)c(O)c2)C1O (stereo not shown) [Isochlorogenic acid A, isochlorogenic acid A]
6 |  |  |  |  | 24.3 ± 11.5 |  |  | 11.33 ± 8.68 | 43.22 ± 26.80 |  |  |  |  | 35.68 ± 18.24 | 52.97 ± 27.74 | 7.02 ± 4.2 | 32.75 ± 15.17 | 6.18 ± 3 |  | O=C(C=Cc1ccc(O)c(O)c1)OC1CC(O)(C(=O)O)CC(O)C1OC(=O)C=Cc1ccc(O)c(O)c1 (stereo not shown) [Isochlorogenic acid B, isochlorogenic acid B]
7 | 0.125 ± 0.05 |  |  | 0.078 ± 0.03 |  |  |  | 39.89 ± 17.30 | 103.84 ± 47.62 | 84.1 ± 46.3 | 71.5 ± 33.2 |  | 79.5 ± 25.1 | 9.002 ± 5.89 | 15.89 ± 11.25 |  | 8.736 ± 5.55 |  | 6.770 ± 4.30 | O=C(C=Cc1ccc(O)c(O)c1)OC1CC(O)(C(=O)O)CC(O)C1OC(=O)C=Cc1ccc(O)c(O)c1 (stereo not shown) [Isochlorogenic acid C, isochlorogenic acid C]
